Test results from patent US6462173B1, “Inhibitors of phosphoserine and phosphothreonine-proline-specific isomerases” (Max-Planck-Gesellschaft zur Forderung der, priority 1997, dated 2002).

How the values were obtained:
cyclin B/Cdc2 = target: T1, cyclin B/Cdc2 (Xenopus laevis, UniProt P35567); experiment: Activity of dephosphorylated-active cyclin B/Cdc2; assay type: biochemical; conditions: same conditions as Cdc25 assay
T1 construct: from tissue; host or cells: Xenopus interphase egg extract (Cdc2); recombinant GST cyclin B added
T1 sequence (P35567 whole entry): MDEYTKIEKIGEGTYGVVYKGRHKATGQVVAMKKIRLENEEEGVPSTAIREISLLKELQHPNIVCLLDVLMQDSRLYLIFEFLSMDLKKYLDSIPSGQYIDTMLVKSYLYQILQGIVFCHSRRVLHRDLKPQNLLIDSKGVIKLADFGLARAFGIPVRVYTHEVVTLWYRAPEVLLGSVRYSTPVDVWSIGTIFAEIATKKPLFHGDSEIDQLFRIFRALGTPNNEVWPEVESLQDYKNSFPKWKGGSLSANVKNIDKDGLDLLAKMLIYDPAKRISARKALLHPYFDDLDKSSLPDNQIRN
T1 sequence (P07818 whole entry partner): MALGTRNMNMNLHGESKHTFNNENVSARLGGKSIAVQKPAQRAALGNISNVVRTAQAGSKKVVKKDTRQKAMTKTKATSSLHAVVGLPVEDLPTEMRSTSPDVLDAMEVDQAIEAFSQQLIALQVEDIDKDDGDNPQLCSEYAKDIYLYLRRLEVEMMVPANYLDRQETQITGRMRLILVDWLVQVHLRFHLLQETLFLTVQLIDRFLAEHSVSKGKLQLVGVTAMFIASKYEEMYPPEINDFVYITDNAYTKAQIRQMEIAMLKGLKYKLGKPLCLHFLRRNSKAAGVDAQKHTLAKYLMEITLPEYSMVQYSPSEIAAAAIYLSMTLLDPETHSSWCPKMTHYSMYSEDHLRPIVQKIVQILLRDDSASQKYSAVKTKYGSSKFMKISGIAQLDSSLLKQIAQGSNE
Method: Cdc2 was assayed using histone H1 as a substrate, as previously described in Murray, 1991; Lu and Hunter, (1995).
Therefore, we tested whether Pin1 could affect the physiological activity of Cdc25, which is to dephosphorylate and activate the cyclin B/Cdc2 complex. To generate the mitotically phosphorylated form of Cdc25, GST-Cdc25 was incubated in Xenopus mitotic extracts, affinity purified on glutathione agarose beads and eluted. […] This offers one explanation for the ability of Pin1 to inhibit mitotic entry.

Xenopus egg extracts = experiment: Entry into mitosis in Xenopus CSF egg extracts; assay type: biochemical; conditions: 10 or 40 μM, added 15 min after Ca2+
Method: Xenopus CSF extracts were prepared from unfertilized eggs, as previously described (Murray, 1991) and used immediately. To examine the effect of Pin1 on mitotic entry, a fresh CSF extract containing demembranated sperm (150/μl) and rhodamine tubulin (2 μg/ml) was activated by addition of 0.4 mM calcium chloride for 15 min, before the indicated concentrations of various Pin1 proteins were added and mitotic entry was followed for 2 h by nuclear morphology, nuclear envelope breakdown, spindle formation and Cdc2 activity, as described previously (Murray, A. W., Methods Cell Biol 36:581-605 (1991)). The cell cycle state of nuclei within the extracts were over 90% synchronous and typical nuclei were photographed.
To examine whether increasing the concentration of Pin1 has similar biological effects in Xenopus, Pin1 or Pin1 mutants were injected into one cell of 2 cell stage embryos and allowed the embryos to develop for 3 h (about 5 divisions). […] A similar concentration (4 μM final) of either Pin1 mutant had little effect on the cell cycle. […] In contrast, higher concentrations of the mutant proteins were needed to block the cell cycle (FIG. 1). […] In contrast, the same extracts containing 40 μM of either BSA or the mutant Pin1 proteins entered mitosis by 70 to 80 min as detected by nuclear envelope breakdown, spindle formation and high histone H1 kinase activity. […]

Xenopus embryos = experiment: Microinjection of Xenopus embryos, cell cycle block; assay type: in vivo
Method: Unfertilized eggs were incubated with sperm, dejellied, and 4 μM of the indicated protein (about 10 fold above the estimated endogenous levels) was injected in one cell of two cell stage embryos (30 embryos each protein). The injected embryos were allowed to develop at 18° C. to stage 8 and pictures were taken of typical embryos. The titration of Pin1 and the mutants was essentially as described above except that the indicated protein was injected into one cell of 4 cell stage (18 embryos each Pin1 concentration) to the indicated final concentration and allowed to develop for 3h. […] To be consistent, cell cycle blocked embryo's were scored as those that contained at least one cell on the injected side that was greater than 5 times larger than uninjected cells (FIG. 2).
To examine whether increasing the concentration of Pin1 has similar biological effects in Xenopus, Pin1 or Pin1 mutants were injected into one cell of 2 cell stage embryos and allowed the embryos to develop for 3 h (about 5 divisions). […] In contrast, the same extracts containing 40 μM of either BSA or the mutant Pin1 proteins entered mitosis by 70 to 80 min as detected by nuclear envelope breakdown, spindle formation and high histone H1 kinase activity. […]

Pin1: essential mitotic peptidyl-prolyl cis-trans isomerase, recombinant protein
effect on cdc2 activity (cyclin B/Cdc2): Neither Pin1 nor the Pin1 mutant had any effect on cdc2 activity | entry into mitosis (Xenopus egg extracts): completely blocked entry into mitosis | cleavage of injected cells (Xenopus embryos; 4 μM final, one cell of 2 cell stage embryos, 3 h): failed to cleave or cleaved slowly | inhibition of the cell cycle (Xenopus embryos; 10 μM, approximately 20 fold above estimated endogenous levels): completely inhibited the cell cycle
